Reference: PubChem BioAssay (NCI)
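Dose response: 5 concentrations. Exposure: 48 h. Format: 96-well plates. Endpoint: linear interpolation; highest concentration if not reached. TGI marks complete inhibition of growth.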 Where a SMILES comes first, the peptide text is derived from it. [ ]: non-standard residue; d: D form. pGlu = O=C1CC[CH](C(=O)O)N1

Experiments:
Experiment in all cases: NCI tumour cell line growth inhibition, 48 h
[1] = system: NCI-H460 lung
[2] = system: KM20L2 colon
[3] = system: DLD-1 colon
[4] = system: DMS 114 small cell lung
[5] = system: XF 498 CNS
[6] = system: SNB-78 CNS
[7] = system: M19-MEL melanoma
[8] = system: DMS 273 small cell lung
[9] = system: LXFL 529 NSCLC
[10] = system: HOP-18 NSCLC
[11] = system: RXF-631 renal
[12] = system: P388/ADR leukemia
[13] = system: P388 leukemia
[14] = system: SN12K1 renal

| SMILES | TGI [1] [µM] | further results |
| --- | --- | --- |
| Fc1cc(C2=Nn3c(COc4ccccc4Cl)nnc3S/C2=C\c2ccc(Cl)cc2)c(Cl)cc1Cl | > 100 |  |
| COC(=O)c1cc2c(c(C(=O)OC)c1)CCC2 | > 100 |  |
| Cc1cc(N(CCC#N)CCC#N)ccc1/C(N=Nc1ccc([N+](=O)[O-])cc1)=N\NC(=O)c1cc(Cl)ccc1O | > 100 |  |
| Cc1ccc(S(=O)(=O)n2cc(C=O)c(-c3cn(S(=O)(=O)c4ccc(C)cc4)cc3-c3cn(S(=O)(=O)c4ccc(C)cc4)cc3C=O)c2)cc1 | > 100 |  |
| C=C1C(C(=O)OC)[C@H]1C(=O)OC (stereo not given in full) | > 100 |  |
| CC(=O)Nc1nc(C)c(S(=O)(=O)NC(=O)NC2NC(=O)NC2=O)s1 (stereo not given) | > 100 |  |
| COc1ccc(S(=O)(=O)Nc2ccc(-c3csc(N4C(=O)/C(=C/c5ccccc5[N+](=O)[O-])N=C4c4ccccc4)n3)cc2)cc1Cl | > 100 |  |
| NC(=S)N1N=C2CCCCCC[C@@H]2[C@H]1c1ccccc1 | > 100 | TGI [2]: > 100 µM; TGI [3]: > 100 µM; TGI [4]: > 100 µM; TGI [5]: 76.5 µM; TGI [6]: > 100 µM; TGI [7]: > 100 µM; TGI [8]: > 100 µM; TGI [9]: > 100 µM |
| COc1ccc(C(=O)/C=C/c2ccc(OCCCCCCCCCCOc3ccc(/C=C/C(=O)c4ccc(OC)cc4)cc3)cc2)cc1 | > 100 |  |
| C(=N\c1nc2cc3sc(/N=C/c4ccccc4)nc3cc2s1)/c1ccccc1 | > 100 |  |
| CC(C)(C)C1=CC(=N/N=c2\scc(-c3ccccc3)n2-c2ccccc2)C=C(C(C)(C)C)C1=O | > 100 | TGI [2]: > 100 µM; TGI [3]: > 100 µM; TGI [4]: > 100 µM; TGI [10]: > 100 µM; TGI [5]: > 100 µM; TGI [6]: > 100 µM; TGI [7]: > 100 µM; TGI [8]: > 100 µM; TGI [9]: > 100 µM |
| CCOP(=O)(CC(=O)C1CC1)OCC | > 100 |  |
| COC(=O)CCc1ccc(CCC(=O)OC)cc1 | > 100 |  |
| CC1CCN(C(C)C)P(=S)(Cc2ccccc2)O1 (stereo not given) | > 100 |  |
| O=C(Cc1ccc2ccccc2c1)NCc1ccc(C(=O)NCCc2ccccc2)cc1 | > 100 |  |
| CN(O)C(=O)CCC(NC(=O)CCC(N)C(=O)O)C(=O)NCC(=O)O (stereo not given) | > 100 |  |
| CCn1c(SCC(=O)N/N=C2\SCC(=O)N2c2ccc(C)cc2)nc2ccccc2c1=O | 57.4 |  |
| COc1ccc2[nH]cc(CCNC(=O)[C@H](Cc3ccc(O)cc3)NC(=O)[C@@H](NCC(F)(F)F)C(C)C)c2c1 | > 100 |  |
| O=C(OC1=CCN(Br)C1=O)C1=C(O)C(=O)N(Br)C1 | > 100 |  |
| CCOC(=O)C1(C(=O)OCC)C(C(C)(C)C)=C(C)c2ccccc21 | 26.3 | TGI [2]: 28.2 µM; TGI [3]: 26.4 µM; TGI [4]: 26.5 µM; TGI [10]: 70.2 µM; TGI [11]: 37.9 µM; TGI [5]: 26.3 µM; TGI [7]: 38.8 µM; TGI [8]: 25.5 µM; TGI [9]: 24.5 µM |

| SMILES | TGI [1] [µM] | further results |
| --- | --- | --- |
| O=C(Nc1ccccc1)N(CCN(Cc1ccccc1)C(=O)Nc1ccccc1)CCN(Nc1ccccc1)C(=O)Nc1ccccc1 | > 100 |  |
| CC(NC(=O)C1CCC(=O)N1)C(=O)N1CCCC1C(N)=O (stereo not drawn) ([pGlu]-Ala-Pro-NH2; configuration not given here) | > 100 |  |
| C=C1C2CCC3C4(C)CCCC(C)(C(=O)O)C4CCC3(C2)C1OC(=O)/C(C)=C/C (stereo not given) | > 100 |  |
| COc1cc(C2C=C(c3ccccc3)Oc3cc4c(cc32)OCO4)cc(OC)c1OC (stereo not given) | > 100 |  |
| C[C@H](Nc1nc(N)c(N=O)c(=O)n1C)C(=O)O | > 10 |  |
| CC(C)C1CSC2N1C(=O)C2(OCc1ccccc1)C1CC1 (stereo not given) | > 100 |  |
| CCOC(=O)CNC(=O)C(CCC(=O)N(C)O)NC(=O)CCC(N)C(=O)O (stereo not given) | > 100 |  |
| CCOC(=O)c1c(N)sc2c1CC(C)CC2 (stereo not given) | > 100 |  |
| COC(=O)C(Cc1c[nH]c2ccccc12)NC(=O)C(Cc1cnc[nH]1)NC(=O)C1CCC(=O)N1C(=O)OCc1ccccc1 (stereo not given) | > 100 |  |
| O=c1onc2n1-c1ccc(Cl)cc1C(=S)N1CSCC21 (stereo not given) | 40 |  |
| O=c1[nH]c(NCc2cccnc2)nc2nc[nH]c12 | > 100 |  |
| Cc1nc(OCc2ccccc2)c2ncn(CCO)c2n1 | > 100 |  |
| O=[N+]([O-])c1ncc(N(CCO)CCO)s1 | > 100 |  |
| Cc1ccc2nc3ccccc3c(C3C4C(=O)N(c5ccc(F)cc5)C(=O)C4ON3C(C(N)=O)c3ccccc3)c2c1 (stereo not given) | > 100 |  |
| CCOP(=O)(OCC)Oc1c(OC)c2[nH]c(C(=O)OC)cc2c2c(C(=O)O)c[nH]c12 | > 100 |  |
| CC(C)(C)c1cc(/C=C(\C#N)C2=NCCO2)cc(C(C)(C)C)c1O | 6.63 |  |
| O=[N+]([O-])c1ccc(-c2csc(N=Nc3c(O)[nH]c4ccccc34)n2)cc1 | 22.9 |  |
| CC(C)(C)c1ccc2c(c1)OP1(Oc3c(Cl)cc(Cl)c4cccnc34)(O2)Oc2ccc(C(C)(C)C)cc2O1 | 16.2 | TGI [2]: 14.6 µM; TGI [12]: 9.93 µM; TGI [3]: 18.1 µM; TGI [4]: 9.57 µM; TGI [10]: 32.4 µM; TGI [13]: 2610 nM; TGI [5]: 26.7 µM; TGI [6]: > 86.8 µM; TGI [14]: 19.6 µM; TGI [8]: 18.3 µM |
| COC(=O)C(CNC(=O)/C=C/c1ccc(OC)c(OC)c1)NC(=O)/C=C/c1ccc(OC)c(OC)c1 (stereo not given) | > 100 |  |
